Data published in patent US20100150911A1, “METHODS AND SYSTEMS OF TREATING AGE-RELATED MACULAR-DEGENERATION” (OPTO GLOBAL HOLDINGS PTY LTD, priority 2007, published 2010).

System: subfoveal choroidal neovascularization (CNV) secondary to age-related macular degeneration (AMD)
Assay: Indocyanine green mediated photothrombosis (i-MP) with and without intravitreal Bevacizumab in patients (Example 4)
Type: in vivo, human

## i-MP+intravitreal Bevacizumab: i-MP combined with an intravitreal injection of Bevacizumab (Avastin), an anti-VEGF compound
10 months of follow-up, 25 eyes
  need to perform a second treatment session: not required
10 months of follow-up, 25 eyes per group
  eyes with improvement of the visual acuity in 2 lines (Group B: almost 2 lines) with staining in the fluorescein angiography: 68%
10 months of follow-up, compared with i-MP alone
  response of the choroidal neovascular membranes (fluorescein angiography and OCT): responded better
Left eye, occult CNV, visual acuity 0.1 before treatment, 10 months after treatment
  visual acuity obtained by a single patient: 0.3
